Here are results for 17 compounds from paper PMC4730229, “Benzobisthiazoles Represent a Novel Scaffold for Kinase Inhibitors of CLK Family Members” (Biochemistry, 2015).

Molecules are shown by their SMILES.

What all share (assay type): biochemical
Test [1] deals with T1, GST-CLK2cd (CLK2 catalytic domain) (Homo sapiens, UniProt P49760).
T1 construct: cDNA encoding the CLK2 catalytic domain (CLK2cd, amino acids 140–496); made in house; host or cells: Escherichia coli BL21(DE3)-R3-lambda-PPase
The experiment in a line: High-throughput screen, Kinase-Glo in vitro kinase assay. The conditions noted are these: compound at 10 μM; read-out: percentage of inhibition on CLK2 (primary screen). How it is done: A small molecule inhibitor library consisting of 1600 compounds was obtained from LIFE Chemicals (Kiev, Ukraine). These compounds are part of the CUTE kinase collection that was predicted by in silico profiling against a panel of targets and includes potent kinase inhibitor compounds.[16] Compounds were dissolved as 10 mM stocks in DMSO and stored at room temperature, in the presence of 5% humidity and 5% oxygen in the dark in a Roylan Storage Pod system. Compounds were dispensed into white 384-well plates using the Labcyte Echo520 instrument at a final concentration of 10 μM. Next, 5 μL of 144.92 nM purified GST-CLK2cd in kinase assay buffer A was added to the compounds, incubated for 10 min at room temperature prior to addition of 5 μL of a 2 μM ATP/10 μM S6K peptide mixture, and incubated again for 60 min at room temperature. Subsequently, 10 μL of Kinase-Glo was added to the wells, and the plates were analyzed after 10 min on the Envision II multilabel plate reader (PerkinElmer). […] The percentage of inhibition is equal to 100 – [(total ATP before assay – remaining ATP in assay with compound)/(total ATP before assay – remaining ATP in assay with DMSO) × 100].

In another test the test system is firefly luciferase. The experiment in a line: Luciferase inhibition assay (Kinase-Glo, no kinase). The conditions noted are these: compound at 10 μM. As to the method:
For analysis of luciferase inhibition, 10 μL of luciferase reagent (Kinase-Glo, Promega) was added to 10 μL of a mixture consisting of 1 μM ATP and 5 μM S6K and 10 μM compound (potential kinase inhibitor) in buffer A in the absence of kinase and incubated for 10 min at room temperature in a white well plate before the luminescence was read. The percentage of inhibition is equal to (luminescence in the assay without compound – luminescence in the assay with compound)/(luminescence in the assay without compound) × 100.

For a further test, the target named is T2, CLK3 (Homo sapiens, UniProt P49761).
T2 construct: The catalytic domains of CLK1, CLK2, CLK3, CLK2K193A, and CLK2K193A/D290A were tagged with GST; GST (N); made in house
T2 sequence (P49761 156-472 limits assumed): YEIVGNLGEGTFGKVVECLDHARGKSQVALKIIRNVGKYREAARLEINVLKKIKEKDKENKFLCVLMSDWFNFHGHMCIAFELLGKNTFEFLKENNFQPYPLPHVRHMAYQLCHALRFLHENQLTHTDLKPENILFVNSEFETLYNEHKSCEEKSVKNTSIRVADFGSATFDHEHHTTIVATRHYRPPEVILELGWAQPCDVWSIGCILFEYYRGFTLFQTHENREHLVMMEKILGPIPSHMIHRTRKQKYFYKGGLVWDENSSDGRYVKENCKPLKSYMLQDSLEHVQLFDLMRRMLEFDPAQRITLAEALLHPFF
The experiment in a line: Kinase inhibition assay, IC50.

For the next test, the target named is CLK2 (Homo sapiens, UniProt P49760). The experiment in a line: Kinase inhibition assay, IC50. The conditions noted are these: relative to 3A5. Also noted: cDNA encoding the CLK2 catalytic domain (CLK2cd, amino acids 140–496); made in house; host or cells: Escherichia coli BL21(DE3)-R3-lambda-PPase.
Chain of CLK2 (P49760 140-496): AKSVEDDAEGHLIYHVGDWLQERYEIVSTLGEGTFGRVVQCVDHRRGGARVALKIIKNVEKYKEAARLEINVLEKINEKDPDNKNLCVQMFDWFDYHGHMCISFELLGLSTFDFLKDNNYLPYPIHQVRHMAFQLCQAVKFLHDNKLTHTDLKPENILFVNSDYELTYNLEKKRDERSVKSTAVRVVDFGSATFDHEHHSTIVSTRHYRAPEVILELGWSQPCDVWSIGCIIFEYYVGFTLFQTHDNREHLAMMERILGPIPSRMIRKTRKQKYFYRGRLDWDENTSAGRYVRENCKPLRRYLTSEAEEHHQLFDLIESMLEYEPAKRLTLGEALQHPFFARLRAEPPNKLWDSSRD

T1 sequence (P49760 140-496): as above

Turning to `COc1ccccc1C(=O)Nc1nc2ncccc2cc1-c1ccccc1` [17F6], the inhibition at 10 µM in test [1] was determined as 53%. Moreover, the “% inhibition of luciferase” value in the test with firefly luciferase amounted to 21.9 ± 0.2%.
Take `COc1cc(C(=O)Nc2nc3ccc(S(=O)(=O)N4CCCCC4)cc3s2)cc(OC)c1OC` [7C4]: the inhibition at 10 µM in test [1] stood at 53%. For the same compound, in the test on firefly luciferase, the “% inhibition of luciferase” value came out at 19.6 ± 3.6%.
The corresponding values for `COCCNC(=O)c1cccc(Nc2nc(-c3ccccc3)c3cc(Cl)ccc3n2)c1` [8B5] are 52% and 0 ± 6.2%.
On to `O=C1N=C(NCc2cccs2)S/C1=C\c1ccc2ncccc2c1` [NR9, (5Z)-5-(quinolin-6-ylmethylidene)-2-[(thiophen-2-ylmethyl)amino]-1,3-thiazol-4(5H)-one], for which the IC50 against CLK3 was greater than 3 µM.
Turning to `O=C(NCCO)c1ccc(Nc2nc(-c3ccccc3)c3cc(Cl)ccc3n2)cc1` [4B9], in test [1], the inhibition at 10 µM is 56%. Also, in the test with firefly luciferase, the “% inhibition of luciferase” value was determined as 20.4 ± 1.6%.
`O=C(O)c1ccc(C(=O)Nc2ccccc2-c2nc3ccccc3[nH]2)cc1` [9C6]: the inhibition at 10 µM in test [1] is 58%. In addition, the “% inhibition of luciferase” value in the test on firefly luciferase is given as 5.6 ± 4.0%.
The corresponding values for `CC(=O)Nc1nc2cc3c(cc2s1)OCO3` [8A6] are 53% and 18.8 ± 1.6%.
The matching figures for `Cc1nc2c(ccc3nc(NC(=O)c4cccs4)sc32)s1` [4G9]: 50% and 47.8 ± 2.1%.
For the compound `CC(=O)Nc1ccc(-c2nc3c(Cl)cccc3[nH]2)cc1` [2A4], the inhibition at 10 µM in test [1] was determined as 51%. Besides, the “% inhibition of luciferase” value in the test on firefly luciferase is on record as 17.5 ± 4.5%.
Consider `CCN1/C(=C/C(C)=O)Sc2ccc(OC)cc21` [TG003, reference compound], for which, in test [1], the inhibition at 10 µM turned out to be 63%. In the test on firefly luciferase, the “% inhibition of luciferase” value came to 13.4 ± 1.8%.
On to `O=C(Nc1nc2c(s1)CCCC2)C1CC1` [1C11], for which the inhibition at 10 µM in test [1] is 50%. Besides, in the test on firefly luciferase, the “% inhibition of luciferase” value was 8.1 ± 1.8%.
In the case of `Fc1ccc(-c2csc3ncnc(NCc4ccccc4)c23)cc1` [5E11], in test [1], the inhibition at 10 µM stood at 58%. Also, in the test with firefly luciferase, the “% inhibition of luciferase” value came out at 26.4 ± 2.4%.
Regarding `O=C(Nc1cccc(-c2nc3ccccc3[nH]2)c1)c1ccc2ncsc2c1` [3B5], the inhibition at 10 µM in test [1] was found to be 65%. The “% inhibition of luciferase” value in the test on firefly luciferase stood at 26 ± 1.1%.
Regarding `CC1(C)Cc2cccc(OCC(=O)Nc3cccc(-c4cc[nH]n4)c3)c2O1` [18B6], the inhibition at 10 µM in test [1] was determined as 58%. Moreover, the “% inhibition of luciferase” value in the test on firefly luciferase was found to be 17.5 ± 2.2%.
With `CSc1nc2ccc3nc(NC(=O)c4ccc(S(=O)(=O)N5CCOCC5)cc4)sc3c2s1` [5F4], the inhibition at 10 µM in test [1] came out at 55%. Also, the “% inhibition of luciferase” value in the test with firefly luciferase is 23.6 ± 1.5%. Moreover, the “decrease of inhibition against CLK2 compared to 3A5” value on CLK2 is reported as 2–3 fold.
Regarding `O=C(Nc1cccc(-c2nc3ccccc3[nH]2)c1)c1ccc2nsnc2c1` [18H3], the inhibition at 10 µM in test [1] stood at 56%. Besides, the “% inhibition of luciferase” value in the test on firefly luciferase amounted to 21.1 ± 2.2%.
With `COc1ccc(Cc2cnc(NC(=O)c3cc(C)oc3C)s2)cc1` [13D3], the inhibition at 10 µM in test [1] turned out to be 51%. Also, the “% inhibition of luciferase” value with firefly luciferase is listed as 0 ± 2.4%.
